Test results from article PMC7323874, “Vancomycin Resistance Is Overcome by Conjugation of Polycationic Peptides” (Angewandte Chemie (International Ed. in English), 2020).
Values after ≈ are worked out from the molar mass of the structure shown. Like-named read-outs stand apart in the source and are kept apart here.

How the values were obtained:
Format in all cases: cell-based
E. faecium UL602570* = test: microbe, parasite or virus in culture
Experimental: (§1) Antimicrobial testing – Microdilution
(§2) Antimicrobial testing was performed according to CLSI and EUCAST guidelines in microdilution.8-10 Therefore, all tested substances as well as controls were dissolved in water in different concentrations and serially diluted in MHB II (cation adjusted) on the 96-well plate. A logarithmic growing, overnight culture of the respective bacterial strain was used and adjusted to a McFarland corresponding to 1 × 10^8 cfu/ml. Afterwards the bacterial suspension was diluted to 1 ×10^6 cfu/ml and loaded on the 96-well polypropylene plates, resulting in a final bacterial concentration of 5 × 10^5 cfu/ml. After an incubation at 35 ± 1 °C for 18-20 hours (re-controlled after 24 hours) the MIC was determined as the lowest concentration without visible growth as described previously.11 For direct comparison of the tested substances, all results were calculated in mg/ml and mol/ml afterwards. […]
Resistance development in S. aureus was determined by passaging bacteria in increasing amounts of vancomycin, FU002 or, as control, fusidic acid. In principle, tubes with twofold dilutions of the compounds in 1 ml Muller Hinton broth were inoculated 1:100 with bacterial suspension. […]
For the validation of possible side effects provoked by the conjugates, the cytotoxic effect of the lead candidate FU002 on human cells was assessed in a colorimetric viability assay. […]

[1] = tested on: Staphylococcus aureus USA300 LAC; test: microbe, parasite or virus in culture; settings: for MIC: Staphylococcus aureus, MRSA / USA300, 24 h
Experimental: as §1, §2
Resistance development study
Resistance development in S. aureus was determined by passaging bacteria in increasing amounts of vancomycin, FU002 or, as control, fusidic acid. In principle, tubes with twofold dilutions of the compounds in 1 ml Muller Hinton broth were inoculated 1:100 with bacterial suspension. The tubes were then incubated for 24 h at 37 °C under shaking. After each passage, the tube with the highest compound concentration showing bacterial growth was used to inoculate the tubes of the next passage (1:100). The tube with the lowest compound concentration showing no growth was defined as the passage MIC. Passaging was stopped after 8 passages.
For the validation of possible side effects provoked by the conjugates, the cytotoxic effect of the lead candidate FU002 on human cells was assessed in a colorimetric viability assay. Different human cell types were used including kidney and liver cell lines as well as freshly isolated peripheral blood cells. Cells were seeded into 96-well microtiter plates at 2 x 10^4 cells/well and cultured overnight (18-24 h) in a […]

human erythrocytes = test: Hemolysis assay; settings: up to a concentration of 640 µg/ml; 120 min at 37 °C; absorption at 554 nm; 1% Triton X-100 as positive control
Experimental: For hemolysis studies, blood from four different, fasted men were taken to determine the hemoglobin release. Erythrocytes were purified centrifuging blood at 2500 rpm for 3 min. The remaining pellet was washed with PBS and centrifuged again. This process was repeated until the supernatant remained clear.
For the hemolysis assay, v-bottom plates were used. FU002 was tested in duplicates in three different assays. As positive control, a 1% Triton® in 0.9%-NaCl solution was used.
FU002 was serial diluted on the plate, resulting in 50 µl of a final concentration of 640 µg/ml to 1.25 µg/ml. Every well contained 50 µl of the purified erythrocytes. […] 50 µl of the supernatant were transferred to a flat-bottom plate and absorption was measured at 554 nm.
Hemolysis was calculated as followed: […]
Cobra Auto γ-Counter, (Packard Bioscience, USA) in comparison with standards. The tissue-associated activity was related to the total injected dose (ID) and expressed as a percentage of the total injected dose per gram of tissue (%ID/g). […]
Mice were infected by intravenous application of the bacterial inoculum via the tail vein. […] During infection, mice were scored twice daily and sacrificed at day 4 post infection and livers harvested. […] Significant differences in the CFU of the livers were determined with Kruskal-Wallis test (software: GraphPad Prism 5.0).

SMILES	MIC (E. faecium UL602570*; Enterococcus faecium, read-out: MIC of E. faecium UL602570*)	MIC ([1]; read-out: MIC after 8 passages)	MIC ([1]; read-out: initial MIC)	hemolytic activity (human erythrocytes)	MIC of E. faecium UL602570* (E. faecium UL602570*; comparison of conjugate, equimolar non-covalent mixture and vancomycin)	MIC after 8 passages ([1]; MRSA USA300 LAC, 8 passages in increasing compound concentrations, 24 h at 37 °C each)	initial MIC ([1]; MRSA USA300 LAC, before passaging, Muller Hinton broth, 24 h, 37 °C)	resistance development ([1]; after eight passages in increasing concentrations)
CN[C@H](CC(C)C)C(=O)N[C@H]1C(=O)N[C@@H](CC(N)=O)C(=O)N[C@H]2C(=O)N[C@H]3C(=O)N[C@H](C(=O)N[C@H](C(=O)O)c4cc(O)cc(O)c4-c4cc3ccc4O)[C@H](O)c3ccc(c(Cl)c3)Oc3cc2cc(c3O[C@@H]2O[C@H](CO)[C@@H](O)[C@H](O)[C@H]2O[C@H]2C[C@](C)(N)[C@H](O)[C@H](C)O2)Oc2ccc(cc2Cl)[C@H]1O [vancomycin]	> 64 µg/mL	4 µg/mL (≈ 2.76 µM)	0.5 µg/mL (≈ 0.345 µM)	no relevant hemolytic activity				
CC(C)C[C@H](C(=O)N[C@H]1C(=O)N[C@@H](CC(N)=O)C(=O)N[C@H]2C(=O)N[C@H]3C(=O)N[C@H](C(=O)N[C@H](C(=O)O)c4cc(O)cc(O)c4-c4cc3ccc4O)[C@H](O)c3ccc(c(Cl)c3)Oc3cc2cc(c3O[C@@H]2O[C@H](CO)[C@@H](O)[C@H](O)[C@H]2O[C@H]2C[C@](C)(N)[C@H](O)[C@H](C)O2)Oc2ccc(cc2Cl)[C@H]1O)N(C)C(=O)C1CCC(CN2C(=O)CC(SC[C@H](NC(=O)[C@H](CCCNC(=N)N)NC(=O)[C@H](CCCNC(=N)N)NC(=O)[C@H](CCCNC(=N)N)NC(=O)[C@H](CCCNC(=N)N)NC(=O)[C@H](CCCNC(=N)N)NC(=O)[C@@H](N)CCCNC(=N)N)C(N)=O)C2=O)CC1 (stereo partly drawn) [FU002]				no relevant hemolytic activity	1 µg/mL	4 µg/mL (≈ 1.47 µM)	1 µg/mL	no resistance development was observed
